Data from patent US4307112A, “9-Deoxy-9A-methylene isosteres of PGI2 and process for their preparation” (Farmitalia Carlo Erba S.p.A., priority 1978, dated 1981).
Converted amounts (≈) assume the structure as drawn. “Also recorded” adds a separate entry of the source. Read-outs that look alike come from different tables or passages of the source.

Tests used:
anaesthetized rat = assay: hypotensive effect on the anaesthetized rat; format: in vivo; settings: PGI2 = 100
platelet aggregation = assay: in vitro inhibitory effect on platelet aggregation induced by 10 μM ADP in platelet rich plasma; format: cell-based; settings: for IC50: read-out: in vitro antiaggregant effect IC50 (50% platelet aggregation inhibiting concentration)
Source text: IC50 = 50% platelet aggregation inhibiting concentration.

hamster = assay: in vitro luteolytic activity in the hamster compared with PGI2 at equally active antiaggregant doses
[1] = product of reaction of PGI2 with acid; cited from earlier work
[2] = antiulcerogenic activity compared with PGI2 at equi-active antiaggregant doses; format: in vivo
uterus [3] = settings: person; cited from earlier work
test animals = settings: cited from earlier work
uterus [4] = settings: monkey; cited from earlier work
asthmatic patients = settings: inhaled; cited from earlier work
man = settings: infused in man; cited from earlier work
blood platelet = settings: infused in man; cited from earlier work
gastric mucous membrane = settings: ulcers induced by e.g. acetyl salicylic acid and indomethacin; test animals, e.g. the rat; cited from earlier work
[5] = acid; enol ether; listed as natural prostacyclin; cited from earlier work
[6] = 10 μM ADP, platelet rich plasma

CCCCC[C@H](O)/C=C/[C@@H]1[C@H]2C/C(=C/CCCC(=O)O)C[C@H]2C[C@H]1O [(2), 5t,13t-11α,15S-dihydroxy-9a-deoxy-9a-methylene-prostacycla-5,13-dienoic acid]
hypotensive effect potency ratio (anaesthetized rat): 1.15 | IC50 (platelet aggregation; Platelet): 0.025 µg/mL (≈ 0.0713 µM)

dl-5,13t-11α,15S-dihydroxy-9a-deoxy-9a,9b-dimethylene-17-cyclohexyl- 18,19,20-trinor-prostacycla-5,13-dienoic acid
in vitro luteolytic activity relative to PGI2 (hamster): 5 times greater

5c,13t-11α,15S-dihydroxy-9a-deoxy-9a,7a-homo-dimethylene-16-phenoxy- 17,18,19,20-tetranor,prostacycla-5,13-dienoic acid
in vitro luteolytic activity relative to PGI2 (hamster): 8 times greater

5t,13t-11α,15S-dihydroxy-9a-deoxy-9a,7a-homo-dimethylene-prostacycla- 5,13-dienoic acid [(3)]
hypotensive effect potency ratio (anaesthetized rat): 0.25 | in vitro antiaggregant effect IC50 (50% platelet aggregation inhibiting concentration) (platelet aggregation; [6]): 20 ηg/ml

CCCCC[C@H](O)/C=C/[C@@H]1[C@@H](CC(=O)CCCCC(=O)O)[C@@H](O)C[C@H]1O [6-keto-PGF1α]
biological activity characteristic of natural prostacyclin [1]: almost none of the biological activity

dl-5,13t-11α,15S-dihydroxy-9a-deoxy-7-nor-methylene-prostacycla-5,13-dienoic acid
antiulcerogenic activity relative to PGI2 [2]: ten times greater

CCCCC[C@H](O)/C=C/[C@@H]1[C@H]2C/C(=C/CCCC(=O)O)O[C@H]2C[C@H]1O [(1), 6,9α-oxide-11α,15(S)-dihydroxy-prosta-5(Z),13(E)-dienoic acid]
hypotensive effect potency ratio (anaesthetized rat): 100 | uterus stimulant action (uterus [3]): uterus stimulant action | luteolytic activity (test animals): luteolytic activity | uterus stimulant action (uterus [4]): uterus stimulant action | prevention of bronchoconstriction (asthmatic patients): prevents aspecifically induced (e.g. by nebulized water or by effort) bronchocostriction | hypotensive and vasodilator activity (man): hypotensive and vasodilator activity | IC50 (platelet aggregation; [6]): 0.001 µg/mL (≈ 0.00284 µM) | blood platelet anti-aggregant and disaggregant properties (blood platelet): blood platelet anti-aggregant and disaggregant properties | protection of gastric mucous membrane from ulcers (gastric mucous membrane): able to protect the gastric mucous membrane from ulcers | chemical stability of natural prostacyclin [5]: extremely acid sensitive; also recorded: marked chemical instability
